Entries after “also recorded” stand apart in the source; their conditions may differ.
Assays:
[1] = tested on: microglia in culture activated by LPS (TLR4 agonist); experiment: TNF-a release (ELISA) in microglia in culture activated by LPS; assay type: cell-based, mouse
Excerpt: Purification of microglia: The cultures were produced from a cell suspension obtained by mechanical dissociation of the brains of newborn mice, C57BL/6J (Janvier LABS), according to a protocol described by Sepulveda-Diaz and colleagues (Glia, 2016) and modified subsequently by dos-Santos-Pereira and colleagues (Glia, 2020). The protocol used follows the directives of the Council of the European Union (2010/63/EU). It was approved by the Ethics Committee for Animal Experimentation, Charles Darwin no. 5. Corning culture flasks of 75 cm^2 precoated with a polycation, polyethyleneimine (PEI; 1 mg/mL) diluted in a borate buffer pH 8.3, were used so as to obtain spontaneous isolation of the microglial cells after 15-20 days of culture, this isolation taking place at the expense of other cell populations, in particular, astrocytes. In order to maintain the flask cultures, Dulbecco’s modified Eagle’s medium (DMEM) supplemented with 10% fetal bovine serum (FBS, Biowest LLC) and 1% penicillin/streptomycin cocktail was used (see experimental details described in the publication of Sepulveda-Diaz and colleagues). After the microglia purification step, the microglia adhering in the culture flasks were trypsinized to produce subcultures in 48-well multi-well Nunc plates. These cultures were maintained in the presence of DMEM, supplemented with 20 mM HEPES and 1% FBS. […]
(§1) Assessment of TNF-a levels: The culture medium of the microglia, recovered 24 hrs after the stimulation by the inflammogens was initiated, was then frozen at -20° C. until the analysis. TNF-a was detected with an ELISA kit from ThermoFisher (BMS607-3TWO), following the supplier’s instructions (dos-Santos-Pereira et al, Glia, 2020). The absorbance of each sample was measured at 450 nm with a SpectraMax i3X.
(§2) Statistical analysis: The experimental data were analyzed with the GraphPad Prism 8.3.1 software by applying a One-Way ANOVA test, followed by a post-hoc Student Newman Keuls test.

[2] = tested on: dopaminergic neurons in midbrain cultures; experiment: Survival of dopaminergic (TH+) neurons in midbrain cultures under low-noise, spontaneous oxidative stress; assay type: cell-based, mouse; conditions: 7 days, FIG. 8
Procedure: Midbrain cultures and immunodetection of tyrosine hydroxylase (TH): Mouse midbrain cultures were produced based on a protocol initially described by Troadec and colleagues (2001) and subsequently taken up by Rousseau and colleagues (2013). The cultures were generated from Swiss mouse embryos (Janvier LABS, Le Genest-St Isles) taken from the pregnant mother on day 13.5 of gestation. The cells dissociated from the midbrain were cultured in 48-well plates containing 500 µl of DMEM/HamF12 medium, supplemented with 10% fetal bovine serum (Biowest LLC, Les Ulis, France). Approximately 80-100 10^3 cells were added initially to each culture well. After one hour, the initial medium was replaced with the DMEM/HamF12 medium supplemented with 20 µg/mL of insulin. The culture medium (350 µl) and the treatments were renewed on days 1 and 3 in vitro. The cultures were maintained for a total of 7 days before binding and analysis. […] TH^+ neurons were counted according to a protocol described previously (Rousseau et al, 2013). The counts are expressed as % of the values obtained in the control cultures treated with apotransferrin.
Statistical analysis: The experimental data correspond to mean ± SEM values. […] The data were analyzed with the GraphPad Prism 8.3.1 software or Sigmaplot 12.5 software using One-Way ANOVA, followed by a post-hoc Student Newman Keuls test.

[3] = doxycycline 50 mg every 6 hrs; intended, from Dotevall, 1989; Karlsson, 1996; cited from earlier work
Parkinson's disease = experiment: Clinical case: person with Parkinson's disease; assay type: in vivo, human
Procedure: This therapeutic solution was tested on a person with Parkinson’s disease. A history of events over 3 years (current follow-up) is presented below:
Symptoms: At the very beginning of 2018, the first manifestations of Parkinson’s appeared: tremors in the left hand, slowing of walking pace, chaotic descent of stairs, tilting of the torso forward accompanied by back pain in the form of muscle contractures, as well as the beginnings of various obvious non-motor disorders (withdrawal, indifference, difficult decision-making, loss of joy in life, depression, etc.), constipation, hyposmia. Initially, ATT was tested as monotherapy.
Treatment: The problem then arose of deciding which dose to use. The patient was already taking ATT to treat a problem of benign prostatic hypertrophy (cf. patent WO2019/O73173) and used it with the greatest satisfaction at a dose of 3 cp to 25 mg, given in the morning and evening, but the dose turned out to be insufficient for treating Parkinson’s disease. A blood-brain barrier crossing problem was suspected and the decision was taken to increase this dose by 4 times by dividing it into 4 daily doses, i.e., 4 x 6 tablets/day (equivalent to 600 mg/day), so as to reduce concentration fluctuations as much as possible (the plasma half-life of ATT in humans is approximately 3 hrs).
Symptoms: In April-May 2019, unusual fatigue manifested when the patient performed strenuous tasks.
Treatment: Faced with worsening fatigue, the decision was taken, on Dec. 19, 2019, to add doxycycline at a dose of 50 mg every 6 hrs, which dose was intended to ensure stable concentrations in the LCR of approximately 0.9 µM/L (Dotevall, 1989; Karlsson, 1996), i.e., around 3 times what Gonzalez-Lizzaraga (2017) recommends.

[4] = in humans; cited from earlier work
[5] = cited from earlier work
[6] = tested on: microglia in culture activated by PAM3CSK4 (TLR2 agonist); experiment: TNF-a release (ELISA) in microglia in culture activated by PAM3CSK4; assay type: cell-based, mouse; conditions: PAM3CSK4 1 µg/mL, 24 hrs; FIG. 4
Excerpt: Purification of microglia: The cultures were produced from a cell suspension obtained by mechanical dissociation of the brains of newborn mice, C57BL/6J (Janvier LABS), according to a protocol described by Sepulveda-Diaz and colleagues (Glia, 2016) and modified subsequently by dos-Santos-Pereira and colleagues (Glia, 2020). The protocol used follows the directives of the Council of the European Union (2010/63/EU). It was approved by the Ethics Committee for Animal Experimentation, Charles Darwin no. 5. […]
as §1, §2

a-synuclein [7] = target: T1, a-synuclein (Homo sapiens, UniProt P37840); experiment: Amyloid aggregation of a-synuclein by orbital shaking, Thioflavin-T test; assay type: biochemical; conditions: ATX 1, 10 or 100 µM, 600 rpm, 37° C., 96 h; FIG. 5B
T1 construct: made in house; host or cells: Escherichia coli (plasmid pT7-7)
Procedure: Preparation of a-synuclein: Human recombinant a-synuclein was produced from a strain of Escherichia coli carrying a plasmid pT7-7 containing the coding sequence of the protein (Kaylor et al, J Mol Biol, 2005; Gonzalez-Lizarraga et al, Sci Rep, 2020). After a purification step, the purity of the protein was evaluated by polyacrylamide gel electrophoresis under denaturing conditions (SDS-PAGE). The stock solution of a-synuclein was prepared in a buffer containing 20 mM of HEPES and 150 mM of NaCl at pH 7.4. Before initiating the aggregation protocol, the protein was centrifuged at 12000 g for 30 minutes in order to eliminate the micro-aggregates. The protein concentration was measured at 280 nm with a Nanodrop 8000 spectrophotometer (Gonzalez-Lizarraga et al, Sci Rep, 2020).
Aggregation of a-synuclein […]: The aggregation protocol was adapted from previous work (Kaylor et al, J Mol Biol, 2005; Gonzalez-Lizarraga et al, Sci Rep, 2020). Briefly, the aggregation of a-synuclein was obtained by orbital shaking (600 rpm; Thermomixer Comfort; Eppendorf), at 37° C. for 96 h, of the recombinant protein (70 µM) solubilized in 20 mM of HEPES and 150 mM of NaCl, pH 7.4. Dimethylformamide (DMF) was used to dilute ATX in this experimental protocol. The formation of aggregated structures was monitored by means of the Thioflavin-T (ThT) test (LeVine et al, Meth Enzymol, 1999).

a-synuclein [8] = target: T1, a-synuclein; experiment: Transmission electron microscopy of a-synuclein aggregates; assay type: biochemical; conditions: ATX 10 µM
Procedure: Transmission electron microscopy: The a-synuclein samples, shaken in the optional presence of the treatments of interest, were characterized by transmission electron microscopy. Aliquots of 50 µl of each solution were used for this analysis. The sample preparation protocol is described in detail by Gonzalez-Lizarraga and colleagues (2020). Images were obtained with a transmission electron microscope, Philips EM 301.

C[C@H]1c2cccc(O)c2C(=O)C2=C(O)[C@]3(O)C(=O)C(C(N)=O)=C(O)[C@@H](N(C)C)[C@@H]3[C@@H](O)[C@@H]21 [DOX, doxycycline]
inhibition at 50 µM ([1]; Mus musculus, Microglia, LPS model, 50 µM of DOX, read-out: Inhibition of the release of TNFa): 50% | inhibition at 100 µM ([1]; Mus musculus, Microglia, LPS model, 100 µM of DOX, read-out: Inhibition of the release of TNFa): ~70% | Protective effect as % of that of apotransferrin ([2]; DOX 7.5 µM): 27% | Stable concentrations in the LCR [3]: approximately 0.9 µM/L

N[C@@H](Cc1ccc(O)c(O)c1)C(=O)O [L-DOPA]
Effect of introducing SINEMET (L-DOPA) on symptoms (Parkinson's disease; July 2019, patient on ATT 600 mg/day): solved the problem of loss of balance but the hand tremors only slightly improved and fatigue persisted

COc1ccc(-c2cc(=S)ss2)cc1 [ATT, anethole trithione]
Duration of satisfactory treatment (Parkinson's disease; ATT 150 mg, 4 times a day): 13 months | Duration of failure with the onset of new symptoms (Parkinson's disease; ATT 150 mg, 4 times a day, after the satisfactory period): 7 months | Side effects (Parkinson's disease; two years of treatment): no significant side effects have been noted during these two years of treatment, apart from intestinal meteorism | Protection as % of that of APO (apotransferrin) ([2]; 0.75 µM): 0.6% | Plasma half-life [4]: approximately 3 hrs | Metabolization of ATT ([5]; He 2011, Li TM 2007, Li WY 2008): metabolizes almost immediately and completely into ATX via O-demethylation | ATT found in the patient's urine ([5]; over a 24-hour period): almost no ATT can be found

Oc1ccc(-c2cc(=S)ss2)cc1 [ATX, 4-hydroxy-anethole trithione]
Release of TNF-a (inflammation marker), result in words ([1]; LPS 10 ng/mL, 24 hrs, FIG. 3): capable of inhibiting the release of TNF-a | Release of TNF-a (inflammation marker), result in words [6]: capable of inhibiting the release of TNF-a | Inhibition of a-synuclein aggregation (ThT fluorescence), result in words (a-synuclein [7]): effective, even at a low concentration; also recorded: effectively and concentration-dependently inhibiting the aggregation | Amyloid aggregation of a-synuclein seen by TEM (a-synuclein [8]): effectively reduces the amyloid aggregation of a-synuclein

Reference: patent US20230110065A1, “COMBINATION OF ANETHOLE TRITHIONE OR ITS DERIVATIVE, 4-OH-ANETHOLE TRITHIONE, WITH DOXYCYCLINE OR MINOCYCLINE FOR THE USE THEREOF IN THE TREATMENT OF PARKINSON'S DISEASE” (priority 2020, published 2023)
